Laboratory results reported in US20220144752A1, “WATER-SOLUBLE NAPHTHOQUINONE DERIVATIVE COMPOSITION AND METHOD FOR PRODUCING SAME, WATER-SOLUBLE COMPOSITION FOR CONTROLLING HARMFUL ALGAE, METHOD FOR CONTROLLING LARGE-SCALE HARMFUL ALGAE, AND AUTOMATION SYSTEM FOR AI-MONITORING, REMOVING, AND PREVENTING LARGE-SCALE HARMFUL ALGAE” (priority 2019, published 2022).
Where a name gives a salt, the structure may show the parent alone.

Key:
dolichospermum = experiment: Algal effect experiment (algal activity by cell counting); format: cell-based, dolichospermum circinale; settings: concentration of 1 μM or more
Method: (§1) The harmful algae algal effect at various inoculation concentrations of the compounds according to an example of the present disclosure was measured. To this end, freshwater harmful algae as treated group include blue-green algae, cyanobacteria microcystis aeruginosa, dolichospermum circinale, aphanizomenon sp., and pseudoanabaena sp., diatoms, stephanodiscus hantzschii, and synedra sp., and green algae, scenedesmus sp., and seawater harmful algae includes trichodesmium sp., alexandrium tamarens, cochlodinium polykrikoides, prorocentrum minimum, and heterosigma akashiwo which are blue-green algae, and pseudo-nitzschia pungens fungens which is diatoms. […]
(§2) Reviewing the details of the experiment, in the case of freshwater species, 5 mL of each culture line was prepared so that the cell density was 5.0×10^3-9.0×10^4 cells/mL, and in the case of seawater species, was prepared so that the cell density was 1.0×10^2-1.0×10^4 cells/mL. […] Counting of the number of cells was performed through an SR-chamber or a hemocytometer under an upright or inverted microscope, and by counting the number of cells after 24 hours, 48 hours, and 72 hours, the reduction ratio of cells compared to before treatment, that is, algal activity (%) was calculated using the following [Equation 1]. […]
(§3) Based on the above [Formula 1], the algal activity of the compound was expressed as 60% or less, 60 to 80%, 80% or more. […]

[1] = tested on: luminescent bacteria (vibrio fischeri); experiment: Ecotoxicity test, relative luminescence of luminescent bacteria; format: cell-based; settings: for relative luminescence of the luminescent bacteria: supernatant of microcystis aeruginosa culture treated at 1 μM
Method: In order to investigate the effect of the compound according to an example of the present disclosure, that is, a composition according to [Chemical Formula 1] on the ecosystem, biotoxicity evaluation indicator organisms such as luminescent bacteria (vibrio fischeri) and daphnia (Daphnia magna) was used to evaluate the ecotoxicity.
First, in the case of the luminescent bacteria, an experiment was conducted according to the water pollution process test method, and as a sample for ecotoxicity evaluation, the compound specified in Example 1 was added to the blue-green algae, microcystis aeruginosa (10,488 cells/mL) at a concentration of 1 μM, and then, the supernatant was taken after 24 hours, 48 hours, and 72 hours and the luminescent bacteria were injected. Thereafter, the relative luminescence of the treated group compared to the control group was measured to confirm the luminescence reduction effect, and thus, the toxicity of each sample was evaluated.

alexandrium tamarence = experiment: Algal effect experiment (algal activity by cell counting); format: cell-based, alexandrium tamarens; settings: concentration of 1 μM or more
Method: as §1, §2, §3

Scenedesmus = experiment: as above; format: cell-based, scenedesmus sp.; settings: 1, 2 and 6 μM, up to 72 hours
Method: as §1, §2, §3

[2] = Biodegradability in on-site stream water (UHPLC-DAD); format: physicochemical; settings: Jungnangcheon stream water, 6.5 μM input, 20° C.
Method: An experiment was performed to evaluate the biodegradability in the water system of the compound of [Chemical Formula 1] according to the example of the present disclosure. First, on-site water from the Jungnangcheon stream in Seoul was collected and sprayed so that the concentration of the substance was 6.5 μM, and then acclimatized to a constant temperature condition of 20° C. The experimental volume was 350 mL, and samples were taken at intervals of 1-3 days, and 5 mL was taken per one time. This sample was filtered with a GF/F filter and stored frozen, and then melted at room temperature for analysis, filtered again with a 0.45 μm nylon filter, and then proceeded under the following analysis conditions. • Equipment: Agilent 1290 Infinity (UHPLC-DAD) • Column: Eclipse Puls-[…] (4.6 mm*100 mm*3.5 μm) • Column temperature: 40° C. • Mobile phase: Isocratic=>A: 0.1% phosphoric acid in D.W, B: ACN=70:30 • Analysis time: 7 min • Flow rate: 1.0 mL/min • Detector: DAD Detector (measurement waveform: 260 nm) • Injection volume: 1 μL

microcystis = experiment: Algal effect experiment (algal activity by cell counting); format: cell-based, microcystis aeruginosa; settings: concentration of 1 μM or more
Method: as §1, §2, §3

[3] = tested on: cochlodinium polykrikoides; experiment: as above; format: cell-based; settings: concentration of 1 μM or more
Method: (§4) The harmful algae algal effect at various inoculation concentrations of the compounds according to an example of the present disclosure was measured. To this end, freshwater harmful algae as treated group include blue-green algae, cyanobacteria microcystis aeruginosa, dolichospermum circinale, aphanizomenon sp., and pseudoanabaena sp., diatoms, stephanodiscus hantzschii, and synedra sp., and green algae, scenedesmus sp., and seawater harmful algae includes trichodesmium sp., alexandrium tamarens, cochlodinium polykrikoides, prorocentrum minimum, and heterosigma akashiwo which are blue-green algae, and pseudo-nitzschia pungens fungens which is diatoms. The culture conditions are shown in [Table 1] below.
(§5) Reviewing the details of the experiment, in the case of freshwater species, 5 mL of each culture line was prepared so that the cell density was 5.0×10^3-9.0×10^4 cells/mL, and in the case of seawater species, was prepared so that the cell density was 1.0×10^2-1.0×10^4 cells/mL. After preparing each culture, the compounds specified as [Chemical Formula 1] prepared according to Examples were inoculated at various concentrations, and are treated so that the final concentrations were 1, 2, and 6 μM, respectively. Then, the compositions were cultured under the culture conditions of [Table 1], and cultured under continuous light conditions and observed for 72 hours. Counting of the number of cells was performed through an SR-chamber or a hemocytometer under an upright or inverted microscope, and by counting the number of cells after 24 hours, 48 hours, and 72 hours, the reduction ratio of cells compared to before treatment, that is, algal activity (%) was calculated using the following [Equation 1].
(§6) Algal activity (%)=(1−Tt/Ct)×100 [Equation 1]
(§7) In this case, in [Equation 1], T represents the density of cells after treating the compound, C represents the density of cells not treating the compound, and t represents the culture time.
(§8) Based on the above [Formula 1], the algal activity of the compound was expressed as 60% or less, 60 to 80%, 80% or more. When the algal activity reached 80% within 48 hours at any compound concentration, it was determined that there was an effect at a concentration higher than that and the high concentration experiment was stopped.

heterosigma akashiwo = experiment: as above; format: cell-based; settings: concentration of 2 μM or more
Method: as §4, §5, §6, §7, §8

green algae = experiment: as above; format: cell-based; settings: 1, 2 and 6 μM, up to 72 hours
Method: as §4, §5, §6, §7, §8

diatoms = experiment: as above; format: cell-based; settings: 1, 2 and 6 μM, up to 72 hours
Method: as §4, §5, §6, §7, §8

akashiwo sanguinea = experiment: as above; format: cell-based; settings: concentration of 6 μM or more
Synedra = experiment: as above; format: cell-based, synedra sp.; settings: 1 μM, second day; cell growth observed again afterwards
Method: as §1, §2, §3

[4] = Solubility in organic solvents; format: physicochemical
Source text: Therefore, diethyl ether (Et2O) is recommended for washing.

aphanizomenon = experiment: Algal effect experiment (algal activity by cell counting); format: cell-based, aphanizomenon sp.; settings: concentration of 2 μM or more
Method: as §1, §2, §3

Compound: CCN(CC)CCNC1=CC(=O)c2ccccc2C1=O [Chemical Formula 1, 2-((2-(diethylamino)ethyl)amino)naphthalene-1,4-dione HCl]
- algal effect (killed) (dolichospermum): ≥ 90%
- relative luminance versus control group ([1]; sample added at 1 μM): did not differ from that of the control group
- relative luminescence of the luminescent bacteria ([1]; after 24 hours): 100%
- relative luminescence of the luminescent bacteria ([1]; after 48 hours): 100%
- relative luminescence of the luminescent bacteria ([1]; after 72 hours): 100%
- algal effect (alexandrium tamarence): more than 90%
- algal effect (Scenedesmus): hardly observed
- concentration of the substance relative to the initial input concentration ([2]; 7th day): 70%
- concentration of the substance ([2]; until the first 2 days): maintained at the input concentration level
- algal effect (killed) (microcystis): ≥ 90%
- algal effect [3]: more than 90%
- algal effect (heterosigma akashiwo): more than 90%
- algal effect (green algae): insignificant
- algal effect (diatoms): insignificant
- algal effect (akashiwo sanguinea): more than 80%
- algal effect (Synedra): 70%
- solubility ([4]; 1,4-dioxane): slightly dissolved
- solubility ([4]; dimethyl sulfoxide (DMSO)): well dissolved
- solubility ([4]; ethanol (EtOH)): slightly dissolved
- algae effect (aphanizomenon): ≥ 80%
